ChEMBL document CHEMBL3507680, “University of Dundee, Gates Library screen for HepG2 cell viability”

Assay: Human HepG2 cell viability assay in 384 well format
Format: toxicity, cell-based
Design: dose 125 nL, time 70.5 hour; cytotoxicity at 70.5 h: concentration not given beside the values
Details: HepG2 cells, read-out: Inhibition

Row | Structure (SMILES) | cytotoxicity at 70.5 h
1 | CN(C)C(=O)c1c[nH]nc1C1CCN(S(=O)(=O)c2ccc(Cl)cc2)CC1 | 17.9%
2 | CC(=O)N1CCC(c2nccnc2CNC(=O)c2cc[nH]n2)CC1 | -4.85%
3 | CN(C(=O)c1cc(F)ccc1F)[C@@H]1CC[C@@H](O)[C@@H]1O | -2.95%
4 | CNC(=O)C1CCCN(C(=O)c2ccccc2-n2cc(CN)cn2)C1 (configuration not stated) | 2.43%
5 | CO[C@@H]1CCC[C@@H](N(C)C(=O)c2cc(F)ccc2F)[C@H]1O | -3.32%
6 | Cc1noc(C)c1CCC(=O)N[C@@H]1CCC[C@@H](Oc2cccnc2)[C@@H]1O | -3.39%
7 | Cc1noc(C2(C)CCN(C(=O)C(C)C)CC2)n1 | -5.14%
8 | CCC(CC)N1CCC(c2[nH]ncc2S(C)(=O)=O)C1 (configuration not stated) | -5.29%
9 | CN(C)C(=O)C1(C)CN(Cc2cn(C)c3ccccc23)CCO1 (configuration not stated) | -4.04%
10 | CC(C)(C)CN1CCC(c2nccnc2Nc2cnccn2)CC1 | -1.64%
11 | Cc1c(CCC(=O)N2CCCC2c2ccnc(N(C)C)c2)cnn1C (configuration not stated) | -1.8%
12 | Cc1cc(CN2CCc3nc(C(C)C)nc(O)c3CC2)c(C)s1 | -0.545%
13 | NC(=O)c1cn[nH]c1C1CCCN1C(=O)COc1ccccc1 (configuration not stated) | -3.18%
14 | CN(C)C(=O)c1c[nH]nc1C1CCN(S(=O)(=O)c2cccc(Cl)c2)CC1 | 9.14%
15 | O=C(CC1CC1)N1CCC(O)(CN2CCN(c3ccccc3)CC2)C1 (configuration not stated) | 5.49%
16 | Cc1nc(C)c(C(=O)N2CCCC2(C)C(=O)NC2CCCC2)s1 (configuration not stated) | -3.63%
17 | Cc1ccc(-c2cc(C)nc(C3CCCN3S(C)(=O)=O)n2)cc1 (configuration not stated) | -8.04%
18 | O=C(Nc1ccc(Cl)cn1)c1cncc(C2CCNCC2)n1 | -7.54%
19 | Cc1ccc(-c2nnc(CNC(=O)c3cccnc3)o2)cn1 | -16.3%

Row | Structure (SMILES) | cytotoxicity at 70.5 h
20 | Cc1cncnc1C1CCN(C(=O)CN(C)C)CC1 | -8.84%
21 | Cc1cc(N(C)C)nc(N2CCn3c(C)nnc3C2)n1 | -17.7%
22 | CS(=O)(=O)CCN1CCSCC1c1ccc(Cl)cc1 (configuration not stated) | -1.17%
23 | CCc1cc(CNC(=O)c2cc(NC(=O)C(C)C)ccc2Cl)[nH]n1 | -9.06%
24 | CC(C)OCCS(=O)(=O)N1CCN(Cc2ccco2)CC1 | -4.45%
25 | CNC(=O)Cc1ccc(NC(=O)NCc2nc(C)sc2C)cc1 | 13.2%
26 | CCN(C)S(=O)(=O)N1CCC(C(O)c2ccc(Cl)cc2)CC1 (configuration not stated) | -8.06%
27 | Cc1cn2c(n1)C(CNCc1cnn3ccccc13)CCC2 (configuration not stated) | -5.6%
28 | CCS(=O)(=O)Nc1ccc2[nH]c(C3CCC3)nc2c1 | -6.11%
29 | Cc1cc(N(C)C)nc(N2CCn3c(nnc3C(C)C)C2)n1 | 13.6%
30 | CC(C)Cc1cc(C(=O)N2CCC(Cc3cnn(C)c3)C2)cc(O)n1 (configuration not stated) | -11.1%
31 | CN(CC(=O)N(C)C(c1cccnc1)c1ccc(F)c(F)c1)C1CC1 (configuration not stated) | 22.6%
32 | COCCNC(=O)N1CCC(NC(C)C)CC1 | 5.14%
33 | Cc1oc(C)c(C(=O)Nc2ccccn2)c1C | -10.7%
34 | O=S(=O)(CCCn1cncn1)Cc1ccccc1Cl | -6.92%
35 | CN(CCOc1ccccc1Cl)S(=O)(=O)N1CCOCC1 | -7.93%
36 | CC(NC(=O)c1ccoc1)C(=O)N(C)Cc1ccsc1 (configuration not stated) | -5.45%
37 | CCNC(=O)C(C)(C)NC(=O)NCc1cccc(Br)c1 | -8.53%
38 | COc1cc(C#N)ccc1OCC(=O)N(C1CC1)C(C)c1ccco1 (configuration not stated) | -9.56%

Row | Structure (SMILES) | cytotoxicity at 70.5 h
39 | COCCNC(=O)N1CCN(C(C)C(=O)NC(C)C)CC1 (configuration not stated) | -5.13%
40 | CCN1CCc2cc(-c3cncn3CCNC3CCS(=O)(=O)C3)ccc21 (configuration not stated) | -5.23%
41 | NC[C@H]1CC[C@H](c2c(C(N)=O)sc3ccccc32)CC1 | -3.54%
42 | CC(C)(C)C(=O)NC(c1nccs1)C1CCN(CC2CCCCC2)CC1 (configuration not stated) | 33.7%
43 | Cc1ncsc1CN1CC[C@H]2OCC[C@@]2(C(=O)NC(C)C)C1 | 33.4%
44 | Cc1ccc(C(=O)N2CCn3cc(CN4CCCCC4)nc3C2)o1 | 35.2%
45 | CNC(=O)[C@H]1C[C@H]2OCC[C@H]2N(Cc2ccc(C)o2)C1 | 3.85%
46 | Cc1nnc(N2C[C@H](C(=O)NCC3CC3)[C@@H]3CCO[C@@H]3C2)s1 | -4%
47 | CCOCC1CN(C(=O)c2cccn2C)Cc2cnn(CC3CC3)c21 (configuration not stated) | 0.525%
48 | O=C(c1ncccn1)N1C[C@H]2CCC[C@@]2(COCc2ccncc2)C1 | 9.21%
49 | Cn1cnc2c1C(COCC1CC1)CN(C(=O)Cc1ccsc1)C2 (configuration not stated) | -3.95%
50 | CN(C)S(=O)(=O)N1C[C@@H](Oc2ccccn2)[C@H]2OCCC[C@H]21 | -7.76%
51 | Cn1nc(C#N)c2c1CN(C(=O)c1cccnc1)CCC2 | 29.4%
52 | Cc1ccc(N2CC3(COCCN(Cc4nccs4)C3)OCC2=O)s1 (configuration not stated) | -10.7%
53 | CCOC(=O)[C@]12CCCN(Cc3nccs3)C[C@H]1CN(C(C)=O)C2 | -13.3%
54 | c1ccc(Cn2cc3c(n2)C(COCC2CC2)OCC3)nc1 (configuration not stated) | 8.53%
55 | CN(C)S(=O)(=O)N1CCC[C@]2(C[C@@H](Oc3ccccn3)CO2)C1 | -17.2%
56 | CC(C)N1CCOCC2(CN(Cc3nccs3)CCO2)C1 (configuration not stated) | -0.368%
57 | CC(C)N1CCOCC2(CN(Cc3ccccn3)CCO2)C1 (configuration not stated) | -2.31%
